Consider 14 molecules from patent US12545643B2, “3,5-diaminobenzoic acid compound, and Pin1 inhibitor and therapeutic agent for inflammatory diseases using same” (Amenis Bioscience, Inc., priority 2020, dated 2026).

For one experiment, the system named is NASH-induced mice. As to conditions: cited from earlier work.
The next experiment relates to SARS-CoV-2. Briefly: SARS-CoV-2 proliferation suppression study (nucleocapsid Western blot in VeroE6/TMPRSS2 cells). The format is cell-based. Particulars: for inhibition at 20 µM: Severe acute respiratory syndrome coronavirus 2, 20 μM, MOI 10, lysate 8 hours after infection, read-out: Inhibition rate (SARS-CoV-2 nucleocapsid band area). For orientation: Immunoblotting shows a protein as a band on a membrane.

The target of experiment [1] is T1, Pin1 (Homo sapiens, UniProt Q13526). Nature of the experiment: Cell-based assay of Pin1 inhibition (AMPK phosphorylation level as index, Western blot). More on the design: endogenous in cells; host or cells: 293T cells; key: +++: a higher level of AMPK phosphorylation is promoted, as compared with C1; ++: a similar level of AMPK phosphorylation is promoted, as compared with C1; +: a lower level of AMPK phosphorylation is promoted, as compared with C1; −: no or almost no promotion is found in AMPK phosphorylation. Particulars: 293T cells, compound at 50 μM, 10 mM 2-DG, pAMPK level compared with known Pin1 inhibitor C1. As for the experimental part: To evaluate the inhibitory activity of each compound synthesized in Example 1 against the function of Pin1, a cell-based assay was performed according to the method previously developed by the inventors (Yusuke Nakatsu et al., Journal of Biological Chemistry, 2015, Vol. 290, No. 40, pp. 24255-24266), in which the phosphorylation level of AMPK (AMP-activated protein kinase), a protein whose phosphorylation is suppressed by Pin1, was examined as an index.
Briefly, 293T cells were plated on a collagen-coated 24-well plate. Forty-eight hours later, each compound synthesized in the preceding example (at 50 μM) was added to the plate, and the plate was left to stand in an incubator for 30 minutes. Subsequently, 10 mM 2-DG was added to the plate, and one hour later, each sample was collected with a buffer containing mercaptoethanol and SDS.
SDS-PAGE and blotting were performed, and blocking was then performed with 3% BSA for 1 hour, according to conventional protocols. Subsequently, a pAMPK antibody (Cell Signaling; diluted 1:2000 in Can Get Signal Solution 1, Toyobo) as a primary antibody, and an HRP-linked anti rabbit IgG (GE Healthcare; diluted 1:4000 in Can Get Signal Solution 2, Toyobo) as a secondary antibody were allowed to react at ambient temperature for 1 hour prior to detection.
The inhibitory activity against the function of Pin1 was evaluated as indicated below by comparing the inhibition levels between each compound and a known Pin1 inhibitor, C1 ((R)-2-(5-(4-methoxyphenyl)-2-methylfuran-3-carboxamido)-3-(naphthalene-6-yl) propanoic acid):
(+++): a higher level of AMPK phosphorylation is promoted, as compared with C1;
(++): a similar level of AMPK phosphorylation is promoted, as compared with C1;
(+): a lower level of AMPK phosphorylation is promoted, as compared with C1;
(−): no or almost no promotion is found in AMPK phosphorylation.

For experiment [2], the system named is non-alcoholic steatohepatitis (NASH) model mice. Nature of the experiment: NASH treatment study in HFD-fed NASH model mice. The format is in vivo. Particulars: 5 mg/kg/day orally three times a week, 8 weeks. As for the experimental part:
Animal experiments were performed using non-alcoholic steatohepatitis (NASH) model mice to test the compounds according to the present invention for the therapeutic effect on NASH. NASH model mice (hereinafter referred to as “NASH mice”) were produced by feeding a high-fat and high-cholesterol diet containing palm oil (HFD) to individual 8-week-old male laboratory mice for 8 weeks. The mice were divided into groups during 8 weeks of the HFD-feeding period, and animal experiments were performed on a group of mice to which a compound according to the present invention (H-686) was administered orally at a dose of 5 mg/kg/day three times a week, and a group of mice to which nothing was administered. In addition, a normal diet was given to individual 8-week-old male laboratory mice for 8 weeks to prepare control mice. FIGS. 1 (A) and 1 (B) show the results of measurements of body weight and liver weight of these mice respectively. FIGS. 2 (A) and 2 (B) show the results of measurements of blood AST (GOT) concentration and blood ALT (GPT) concentration. respectively. Then FIGS. 3 (A) and 3 (B) show the results of measurements of mRNA expression levels of Colla1 (collagen, type I, alpha 1 chain) and Colla2 (collagen, type I, alpha 2 chain), respectively.

The target in experiment [3] is T1, Pin1. Nature of the experiment: Cell-free assay of peptidylprolyl isomerase activity (absorbance at 330 nm, substrate Suc-Ala-Glu-Pro-Phe-pNA). The format is biochemical. As to conditions: compound 10 μM, Pin1 5 nM, substrate peptide 60 μM, 10° C.; read-out: Pin1 inhibition activity Cell-free assay (inhibition ratio). As for the experimental part: For some compounds synthesized in Example 1, the inhibitory activity against the function of Pin1 was measured by a cell-free assay based on the method by Janowski et al. (AnalyticalBiochemistry, 1997, Vol. 252, Issue 2, pp. 299-307) because there is an assay measuring peptidylprolylisomerase activity without cells (cell-free).
Briefly, an assay buffer (containing 35 mM HEPES, pH 7.8, 50 μM DTT and 0.0025% NP40) was equilibrated to 10° C. in a quartz cell with stirring function. To this solution was added the compound dissolved in DMSO (10 μM) and then UV spectrum of the resulting solution was immediately measured. Then Pin1 (final concentration of 5 nM) was added to the solution. The reaction was initiated by adding a substrate peptide (Suc-Ala-Glu-Pro-Phe-pNA) dissolved in 0.5 M LiCl solution in trifluoroethanol (final concentration of 60 μM). After reaction was initiated, the change of absorbance at 330 nm was measured for 5 minutes. The resultant reaction curve was fitted to a first order decay model to calculate the reaction rate. The catalytic reaction rate was calculated by subtracting the background rate from the reaction rate. The inhibition ratio (%) was calculated from the catalytic reaction rates in the presence and absence of the compound. The higher inhibition ratio means the higher inhibitory activity against Pin1 function.

T1 sequence (Q13526 whole entry): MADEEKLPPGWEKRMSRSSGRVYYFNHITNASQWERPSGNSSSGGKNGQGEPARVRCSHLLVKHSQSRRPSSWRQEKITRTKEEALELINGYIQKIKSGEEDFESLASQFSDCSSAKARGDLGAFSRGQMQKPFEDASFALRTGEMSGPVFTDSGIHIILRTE

`O=C1C=CC(=O)c2c(O)cccc21` [Juglone]: in the experiment with NASH-induced mice, the “development of NASH” value is listed as “ameliorates the development of NASH”.
Regarding `COC(=O)c1cc(NC(=O)c2cnc3ccccc3n2)cc(NC(=O)n2c3ccccc3c3ccccc32)c1` [Compound H-685], in the experiment on SARS-CoV-2, the inhibition at 20 µM amounted to 58%. The “Pin1 inhibition activity Cell-based assay” value on Pin1 [1] is reported as “+”.
For `COC(=O)c1cc(NC(=O)COc2ccccn2)cc(NC(=O)n2c3ccccc3c3ccccc32)c1` [Compound H-762], the inhibition at 20 µM in the experiment on SARS-CoV-2 came to 83%. For the same molecule, the “Pin1 inhibition activity Cell-based assay” value on Pin1 [1] is “− (Hydrolysis causes conversion to H-763)”.
The corresponding values for `COC(=O)c1cc(NC(=O)c2ccc3ccccc3n2)cc(NC(=O)n2c3ccccc3c3ccccc32)c1` [Compound H-684] are 66% and “++ (Hydrolysis causes conversion to H-688)”.
For the molecule `COC(=O)c1cc(NC(=O)c2ccc3c(c2)OCCO3)cc(NC(=O)n2c3ccccc3c3ccccc32)c1` [Compound H-686], the “Pin1 inhibition activity Cell-based assay” value at Pin1 [1] was “++ (Hydrolysis causes conversion to H-692)”. Also, the “body weight (weight gain)” value in experiment [2] (FIG. 1 (A)) is on record as “weight gain in the mice given H-686 was suppressed”. Further, the “liver weight (increase)” value in experiment [2] (FIG. 1 (B)) was “the increase in liver weight was significantly suppressed”. Moreover, the “blood AST (GOT) concentration” value in experiment [2] (FIG. 2 (A)) was “the AST value was decreased”. Besides, the “blood ALT (GPT) concentration” value in experiment [2] (FIG. 2 (B)) was “the ALT value was decreased”. In experiment [2] (FIG. 3 (A)), the “mRNA expression level of Colla1 (collagen, type I, alpha 1 chain)” value was “the expression level of Colla1 was suppressed”. For the same molecule, in experiment [2] (FIG. 3 (B)), the “mRNA expression level of Colla2 (collagen, type I, alpha 2 chain)” value is “the suppression of the expression level was observed”. Moreover, the “fat accumulation in liver tissue (microscopic observation)” value in experiment [2] (FIG. 4) is “suppressed fat accumulation”.
As for `O=C(O)c1cc(NC(=O)c2ccc3ccccc3n2)cc(NC(=O)n2c3ccccc3c3ccccc32)c1` [Compound H-688], the “suppressing effect against SARS-CoV-2 proliferation” value in the experiment on SARS-CoV-2 (5 μM or 10 μM, MOI 10, 8 hours after infection, FIG. 5) is listed as “observed to have a suppressing effect against SARS-CoV-2 proliferation”. Besides, in the experiment with SARS-CoV-2, the inhibition at 20 µM was 98%. Further, the “Pin1 inhibition activity Cell-based assay” value at Pin1 [1] is given as “++”.
For the molecule `O=C(CN(c1ccccc1)c1ccccc1)Nc1cc(NC(=O)c2ccc3ccccc3n2)cc(C(=O)O)c1` [Compound H-821], the inhibition at 20 µM with SARS-CoV-2 was determined as 95%. Also, at Pin1 [3], the inhibition at 10 µM amounted to 94.4%.
In the case of `O=C(CN(c1ccccc1)c1ccccc1)Nc1cc(NC(=O)c2ccc3ccccc3c2)cc(C(=O)O)c1` [Compound H-819], the inhibition at 20 µM in the experiment on SARS-CoV-2 amounted to 95%. Besides, the inhibition at 10 µM on Pin1 [3] turned out to be 62%.
With `O=C(COc1ccccc1)Nc1cc(NC(=O)n2c3ccccc3c3ccccc32)cc(C(=O)O)c1` [Compound H-759], the “Pin1 inhibition activity Cell-based assay” value at Pin1 [1] is on record as “−”. Besides, on Pin1 [3], the inhibition at 10 µM was determined as 11%.
The matching figures for `O=C(Cn1c2ccccc2c2ccccc21)Nc1cc(NC(=O)c2ccc3ccccc3c2)cc(C(=O)O)c1` [Compound H-745]: “−” and 88 to 95%.
As to `O=C(COc1ccccn1)Nc1cc(NC(=O)n2c3ccccc3c3ccccc32)cc(C(=O)O)c1` [Compound H-763], the inhibition at 20 µM in the experiment with SARS-CoV-2 amounted to 97%. At Pin1 [1], the “Pin1 inhibition activity Cell-based assay” value is recorded as “−”. The inhibition at 10 µM at Pin1 [3] turned out to be 24.6%.
For the molecule `CC(=O)Nc1ccc(C(=O)Nc2cc(NC(=O)n3c4ccccc4c4ccccc43)cc(C(=O)O)c2)cc1` [Compound H-694], the “Pin1 inhibition activity Cell-based assay” value on Pin1 [1] is “++”. Moreover, on Pin1 [3], the inhibition at 10 µM was 69%.
The matching figures for `O=C(O)c1cc(NC(=O)c2ccc3c(c2)OCCO3)cc(NC(=O)N(c2ccccc2)c2ccccc2)c1` [Compound H-734]: “−” and 82%.
For `COC(=O)c1cc(NC(=O)c2cccnc2)cc(NC(=O)n2c3ccccc3c3ccccc32)c1` [Compound H-680], the inhibition at 20 µM in the experiment with SARS-CoV-2 came to 53%. Besides, the “Pin1 inhibition activity Cell-based assay” value on Pin1 [1] is recorded as “− (Hydrolysis causes conversion to H-682)”.
